The values below come from article PMC9861757, “New Insights into Conformationally Restricted Carbonic Anhydrase Inhibitors” (Molecules, 2023).

Molecules are shown by their SMILES. Like-named read-outs stand apart in the source and are kept apart here.

Experiment [1] addresses T1, human CA I (Homo sapiens, UniProt P00915). As to the kind of experiment: stopped-flow CO2 hydrase assay, CA I inhibition. The note with it: for inhibition of CA I (in words): qualitative statement; for loss of CA I inhibition potency relative to 3a: comparator 3a.
Description: (§1) An Applied Photophysics stopped-flow instrument was used to assay the CA catalyzed CO2 hydration activity [14]. […] The uncatalyzed rates were determined in the same manner and subtracted from the total observed rates. Stock solutions of the inhibitor (0.1 mM) were prepared in distilled–deionized water and dilutions up to 0.01 nM were done thereafter with the assay buffer. Inhibitor and enzyme solutions were preincubated together for 15 min at room temperature prior to the assay to allow for the formation of the E–I complex. The inhibition constants were obtained by non-linear least-squares methods using PRISM 3 and the Cheng–Prusoff equation, as reported earlier, and represent the mean from at least three different determinations. All CA isoforms were recombinant proteins obtained in house, as reported earlier [1, 12, 13].
For experiment [2], the target named is T2, human CA II (Homo sapiens, UniProt P00918). As to the kind of experiment: stopped-flow CO2 hydrase assay, CA II inhibition.
Description: as §1
The target in experiment [3] is T3, human CA IX (Homo sapiens, UniProt Q16790). The experiment is described as follows: stopped-flow CO2 hydrase assay, CA IX inhibition. The following applies: for SI (IX/II): ratio KI CA IX / KI CA II.
Description: as §1
Experiment [4] deals with T4, human CA XII (Homo sapiens, UniProt O43570). As to the kind of experiment: stopped-flow CO2 hydrase assay, CA XII inhibition.
Description: as §1
Experiment [5] concerns the target T1, human CA I. On the set-up: made in house; method as in PMID 31076951. The following applies: stopped-flow CO2 hydrase assay; compound marked with a reference in Table 1; cited from earlier work.
Experiment [6] has as its target T2, human CA II. On the set-up: made in house; method as in PMID 31076951. The note with it: stopped-flow CO2 hydrase assay; compound marked with a reference in Table 1; cited from earlier work.
In experiment [7] the target is T3, human CA IX. On the set-up: made in house; method as in PMID 31076951. The note with it: stopped-flow CO2 hydrase assay; compound marked with a reference in Table 1; cited from earlier work.
Experiment [8] has as its target T4, human CA XII. On the set-up: made in house; method as in PMID 31076951. The note with it: stopped-flow CO2 hydrase assay; compound marked with a reference in Table 1; cited from earlier work.

T4 sequence (O43570 25-354): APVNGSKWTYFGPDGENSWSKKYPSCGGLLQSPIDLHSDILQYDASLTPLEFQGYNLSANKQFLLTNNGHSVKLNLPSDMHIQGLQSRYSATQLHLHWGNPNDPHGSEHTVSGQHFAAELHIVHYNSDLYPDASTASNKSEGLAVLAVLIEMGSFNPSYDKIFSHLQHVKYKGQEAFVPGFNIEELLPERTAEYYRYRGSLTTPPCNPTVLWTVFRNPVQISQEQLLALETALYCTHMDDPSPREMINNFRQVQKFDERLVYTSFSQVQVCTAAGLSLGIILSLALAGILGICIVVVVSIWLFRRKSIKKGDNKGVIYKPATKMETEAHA
T1 sequence (P00915 whole entry): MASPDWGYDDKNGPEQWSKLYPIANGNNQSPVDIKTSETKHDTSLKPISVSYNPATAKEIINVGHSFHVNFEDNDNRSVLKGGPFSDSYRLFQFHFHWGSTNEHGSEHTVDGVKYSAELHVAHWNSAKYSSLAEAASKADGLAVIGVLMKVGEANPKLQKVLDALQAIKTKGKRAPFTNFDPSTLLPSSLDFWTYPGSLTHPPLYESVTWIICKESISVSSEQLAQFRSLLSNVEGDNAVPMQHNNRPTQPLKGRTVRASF

Broadly, the Ki is the dissociation constant of the complex between target and ligand, obtained from inhibition or displacement. As to `NS(=O)(=O)c1ccc(O)c(NC(=O)NCCN2CCCCC2)c1` [Compound 3d, 4-Hydroxy-3-(3-(2-(piperidin-1-yl)ethyl)ureido)benzenesulfonamide], the Ki on human CA I [1] was 689 nM; on human CA II [2], 288 nM; at human CA IX [3], 4120 nM; on human CA XII [4] it was 659 nM. Besides, on human CA IX [3], the “SI (IX/II)” value is 14.3.
With `NS(=O)(=O)c1ccc(CCNC(=O)Nc2ccccc2O)cc1` [Compound 3k, 4-(2-(3-(2-Hydroxyphenyl)ureido)ethyl)benzenesulfonamide], the “inhibition of CA I (in words)” value against human CA I [1] (CA I) was “did not result in appreciable inhibition”. Besides, the inhibition constant (Ki) on human CA II [2] was 75.9 nM; at human CA IX [3], 34.7 nM; on human CA XII [4], 239 nM. The “less effective on CA II than AAZ” value at human CA II [2] (CA II, comparator AAZ) turned out to be 6.3 fold. Also, on human CA IX [3], the “SI (IX/II)” value was 0.77.
On to `CCN1CCN(C(=O)Nc2cc(S(N)(=O)=O)ccc2O)CC1` [Compound 3f, 4-Ethyl-N-(2-hydroxy-5-sulfamoylphenyl)piperazine-1-carboxamide], for which the Ki at human CA I [1] amounted to 8990 nM; on human CA II [2] it was 7740 nM; at human CA IX [3], 2150 nM; at human CA XII [4] it was 505 nM. For the same compound, at human CA I [1] (CA I, comparator 3d), the “decrease of CA I affinity relative to 3d” value was 13.1 fold. The “SI (IX/II)” value on human CA IX [3] is 0.28. The “more effective CA XII inhibitor than 3d” value at human CA XII [4] (CA XII, comparator 3d) worked out at 1.3 fold.
With `NS(=O)(=O)c1ccc(O)c(NC(=O)NCc2ccncc2)c1` [Compound 3g, 4-Hydroxy-3-(3-(pyridin-4-ylmethyl)ureido)benzenesulfonamide], the Ki was 89.5 nM on human CA I [5], 463 nM at human CA II [6], 0.3 nM on human CA IX [7] and 85.1 nM on human CA XII [8]. Moreover, on human CA I [1] (CA I, comparator AAZ), the “more potent on CA I compared to AAZ” value is “up to 2.8 fold”. Besides, the “SI (IX/II)” value on human CA IX [3] amounted to 0.0006.
Turning to `NS(=O)(=O)c1ccc(O)c(NC(=O)NCCCCO)c1` [Compound 3j, 4-Hydroxy-3-(3-(4-hydroxybutyl)ureido)benzenesulfonamide], the Ki on human CA II [6] is 280 nM; on human CA IX [7] it was 215 nM; on human CA XII [8] it was 47.1 nM. Moreover, the “inhibition of CA I (in words)” value against human CA I [1] (CA I) is “did not result in appreciable inhibition”. Moreover, on human CA IX [3], the “SI (IX/II)” value is listed as 0.46.
`NS(=O)(=O)c1ccc(O)c(NC(=O)N2CCCCC2)c1` [Compound 3b, N-(2-Hydroxy-5-sulfamoylphenyl)piperidine-1-carboxamide]: the inhibition constant (Ki) on human CA I [1] was found to be 8650 nM; on human CA II [2], 914 nM; at human CA IX [3], 308 nM; on human CA XII [4], 507 nM. Further, the “loss of CA I inhibition potency relative to 3a” value on human CA I [1] (CA I) is 14.8 fold. In addition, the “more effective on CA II than 3a” value at human CA II [2] (CA II, comparator 3a) is on record as 3.5 fold. Moreover, the “more effective on CA IX than 3a” value on human CA IX [3] (CA IX, comparator 3a) turned out to be 1.2 fold. Besides, the “SI (IX/II)” value on human CA IX [3] turned out to be 0.34.
With `NS(=O)(=O)c1ccc(O)c(NC(=O)N2CCOCC2)c1` [Compound 3c, N-(2-Hydroxy-5-sulfamoylphenyl)morpholine-4-carboxamide], the Ki on human CA I [1] turned out to be 4000 nM; at human CA II [2], 8030 nM; on human CA IX [3], 140 nM; on human CA XII [4] it was 73.8 nM. Moreover, the “loss of CA I inhibition potency relative to 3a” value on human CA I [1] (CA I) is 6.9 fold. In addition, the “CA IX potency increase relative to 3b” value on human CA IX [3] (CA IX, comparator 3b) was 2.2 fold. Also, the “SI (IX/II)” value on human CA IX [3] came out at 0.017.
`NS(=O)(=O)c1ccc(O)c(NC(=O)N2CCN(CC(=O)NC3CCCCC3)CC2)c1` [Compound 3i, 4-(2-(Cyclohexylamino)-2-oxoethyl)-N-(2-hydroxy-5-sulfamoylphenyl)piperazine-1-carboxamide]: the Ki on human CA I [1] came out at 698 nM; on human CA II [2], 405 nM; at human CA IX [3], 204 nM; on human CA XII [4], 33.7 nM. Moreover, the “inhibition of CA I (in words)” value at human CA I [1] (CA I) was “did not result in appreciable inhibition”. The “SI (IX/II)” value at human CA IX [3] amounted to 0.50.
Regarding `NS(=O)(=O)c1ccc(O)c(NC(=O)NCCN2CCOCC2)c1` [Compound 3e, 4-Hydroxy-3-(3-(2-morpholinoethyl)ureido)benzenesulfonamide], the inhibition constant (Ki) on human CA I [1] was 9210 nM; at human CA II [2] it was 3000 nM; at human CA IX [3], 2140 nM; on human CA XII [4], 629 nM. The “decrease of CA I affinity relative to 3d” value at human CA I [1] (CA I, comparator 3d) is on record as 13.4 fold. Moreover, the “more potent CA IX inhibition compared to 3d” value on human CA IX [3] (CA IX, comparator 3d) is given as 1.9 fold. Further, the “SI (IX/II)” value on human CA IX [3] is listed as 0.71.
`NS(=O)(=O)c1ccc(O)c(NC(=O)N2CCCC2)c1` [Compound 3a, N-(2-Hydroxy-5-sulfamoylphenyl)pyrrolidine-1-carboxamide]: the inhibition constant (Ki) stood at 583 nM at human CA I [1], 3180 nM at human CA II [2], 369 nM on human CA IX [3] and 91.3 nM at human CA XII [4]. Also, the “SI (IX/II)” value at human CA IX [3] came out at 0.12. Also, the “more effective CA XII inhibitor than 3b” value at human CA XII [4] (CA XII, comparator 3b) came to 5.5 fold.
As to `NS(=O)(=O)c1ccc(O)c(NC(=O)NCCc2ccccn2)c1` [Compound 3h, 4-Hydroxy-3-(3-(2-(pyridin-2-yl)ethyl)ureido)benzenesulfonamide], the Ki on human CA I [5] was 571 nM; on human CA II [6], 331 nM; at human CA IX [7], 0.24 nM; at human CA XII [8], 65.9 nM. Moreover, the “CA I potency increase relative to 3d” value on human CA I [1] (CA I, comparator 3d) turned out to be 1.2 fold. Moreover, the “SI (IX/II)” value on human CA IX [3] turned out to be 0.0007.
